One experiment relates to HIV(3b) or HIV(Rf). Nature of the experiment: HIV cell assay (HIV low multiplicity assay, protection of MT-2 cells from virus induced cell death, XTT). To be noted: for Cell Assay IC50: unit not given. Format: cell-based, Human immunodeficiency virus. On the procedure: […], a human T-cell line, was cultured in RPMI medium supplemented with 5% (v/v) heat inactivated fetal calf serum (FCS), L-glutamine and gentamycin (GIBCO). Human immunodeficiency virus strains HIV(3b) and HIV (Rf) were propagated in H-9 cells in RPMI with 5% FCS. XTT, benzene-sulfonic acid, 3,3'-[1-[(phenylamino)carbonyl]-3,4-tetrazolium]bis(4-methoxy-6-nitro)-, sodium salt, was obtained from Starks Associates, Inc.
Test compounds were dissolved in dimethyl-sulfoxide to 5 mg/ml and serially diluted into RPMI medium to ten times the desired final concentration. MT-2 cells (5×10E4/0.1 ml) were added to each well of a 96 well culture plate and 0.02 ml of the appropriate test compound solution was added to the cells such that each compound concentration was present in two wells. The cells and compounds were allowed to sit for 30 minutes at room temperature. HIV(3b) or HIV(Rf) (~5×10E5 plaque forming units/ml) was diluted in medium and added to the cell and compound mixtures to give a multiplicity of infection of 0.01 plaque forming unit/cell. The mixtures were incubated for 7 days at 36° C., during which time the virus replicated and caused the death of unprotected cells. The percentage of cells protected from virus induced cell death was determined by the degree of metabolism of the tetrazolium dye, XTT. In living cells, XTT was metabolized to a colored formazan product which was quantitated spectrophoto-metrically at […]. The amount of colored formazan was proportional to the number of cells protected from virus by the test compound. The concentration of compound protecting either 50% (IC50) or 90% (IC90) with respect to an uninfected cell culture was determined.
(In general: Tetrazolium dyes change colour on reduction, which living cells bring about.)

The target of a further experiment is T1, HIV protease (Human immunodeficiency virus type 1 group M subtype B, UniProt P04585).
T1 construct: inclusion bodies of E. coli harboring plasmid containing HIV protease under the control of the T7 promotor; made in house; host or cells: E. coli (A: crude lysate, lac promotor)
Nature of the experiment: Cell free protease inhibition assay (HIV gag polyprotein cleavage). In kind it is biochemical. To be noted: Table XVII, unit inferred, IC50 per method. The text has this:
HIV gag polyprotein corresponding to all of p17 and 78 amino acids of p24, produced by in vitro translation using rabbit reticulocyte lysate and mRNA prepared in vitro from plasmid encoding full length gag polyprotein linerized with the restriction enzyme Pst 1. (See S. Erickson-Viitanen et al., Aids Research and Human Retroviruses, 5 (6), 577 (1989) for plasmid construction, and basis for assay).
Source of protease: Either (A) crude E. coli lysate of bacteria harboring a plasmid containing HIV protease under the control of the lac promotor, used at a final concentration of 0.5 mg/ml, or (B) inclusion bodies of E. coli harboring plasmid containing HIV protease under the control of the T7 promotor (Cheng et al., Gene, in press (1990). Such inclusion bodies were solubilized in 8M urea, 50 mM Tris pH 8.0. Protease activity was recovered by dilution of the inclusion bodies 20-fold in buffer containing 50 mM Sodium Acetate, pH 5.5, 1 mM EDTA, 10% glycerol and 5% ethylene glycol. This protease source was used at a final concentration of 0.00875 mg/ml.
Inhibitory compounds were dissolved in sufficient DMSO to make a 25 mM stock concentration. All further dilutions were done in DMSO.
Into sterile test tubes were placed the following:
14 ul HIV protease in Phosphate Buffered Saline (Gibco)
5 ul of in vitro translation products.
Reactions were incubated at 30° C., then quenched by the addition of Sample buffer. See U. K. Laemmli, Nature, 1970, 227:680-685.
One fourth of each sample was analyzed on an 8-16% gradient denaturing acrylamide gel (Novex, Inc), according to Laemmli. Following electrophoresis, gels were fixed, impregnated with Enhance (Du Pont NEN, Boston, Mass.) and dried according to manufacturers instructions (NEN). Dried fluorographs were exposed to film and/or quantitated using an Ambis radioanalytic scanner.
Each group of test compounds was compared to the values obtained for pepstatin, a well known inhibitor of acid proteases. Inhibitory concentration for 50% inhibition (IC50) is determined from plots of log concentration inhibitor versus % inhibition of protease activity.
Biological Activity: IC50 is the concentration necessary for reducing the activity of the enzyme by 50%.

Setting [1] is: Human immunodeficiency virus 1, MT2, Table XVII, unit inferred, HIV in MT-2 cells, read-out: Cell Assay IC90.
Setting [2] is: read-out: Cell Free Assay (converted).
Where [3] appears, read: Human immunodeficiency virus 1, MT2, Table XVII, unit inferred, HIV in MT-2 cells, read-out: Cell Assay IC50.

Converted amounts (≈) assume the structure as drawn. Counter-ions that a name gives are not always drawn. Like-named read-outs stand apart in the source and are kept apart here. Bounds are passed on as bounds.

As usually defined, the IC90 is the concentration needed for an effect of 90%. Regarding `CSCCC(NC(=O)OC(C)(C)C)C(O)C(O)C(CCSC)NC(=O)OC(C)(C)C` (stereo not shown) [Example 1A], in the experiment with HIV(3b) or HIV(Rf) (setting [1]), the IC90 worked out at 6 µg/mL (≈ 12.8 µM). In the experiment with HIV(3b) or HIV(Rf) (Table XVII, HIV in MT-2 cells), the “Cell Assay IC50” value is listed as 2. The IC50 on HIV protease (setting [2]) was 25.6 µM.

For the compound `CC(C)(C)OC(=O)N[C@@H](Cc1ccccc1)[C@H](O)[C@H](O)[C@H](Cc1ccccc1)NC(=O)OC(C)(C)C` [Example 2C, Bis(1,1-dimethylethyl) (2,3-dihydroxy-1,4-(phenylmethyl)-1,4-butanediyl)biscarbamate (1S,2S,3R,4S)], at HIV protease (setting [2]), the IC50 was 61.9 µM.

Take `CC(C)(C)OC(=O)NCC(O)C(O)CNC(=O)OC(C)(C)C` (stereo not shown) [Example 3, Bis(1,1-dimethylethyl) (2,3-dihydroxy-1,4-butanediyl)biscarbamate]: the IC50 at HIV protease (setting [2]) is 1200 µM.

In the case of `CC(C)(C)OC(=O)NC(Cc1ccc(F)cc1)C(O)C(O)C(Cc1ccc(F)cc1)NC(=O)OC(C)(C)C` (stereo not shown) [Example 11], the IC50 at HIV protease (setting [2]) is 37.3 µM.

On to `CC(N)C(O)C(O)C(C)N` (stereo not shown) [Example 17, 2,5-Diamino-3,4-hexanediol dihydrochloride], for which the IC50 on HIV protease (setting [2]) was 1260 µM.

Turning to `CCC(C)C(NC(=O)Cc1ccccn1)C(=O)NC(Cc1ccccc1)C(O)C(O)C(Cc1ccccc1)NC(=O)C(NC(=O)Cc1ccccn1)C(C)CC` [Example 21, 2,5-(N-2-Pyridyl-L-Ile,N'-2-pyridyl-D-Ile)diamino-1,6-diphenyl-3,4-hexanediol], the figures for the IC50 with HIV(3b) or HIV(Rf) (setting [3]) and on HIV protease (setting [2]) were 6 µg/mL (≈ 7.84 µM) and 0.00261 µM, respectively.

Turning to `CC(NC(=O)OC(C)(C)C)C(O)C(O)C(C)NC(=O)OC(C)(C)C` (stereo not shown) [Example 4, Bis(1,1-dimethylethyl) (2,3-dihydroxy-1,4-dimethyl-1,4-butanediyl)biscarbamate], at HIV protease (setting [2]), the IC50 is 1250 µM.

Regarding `CC(C)C(NC(=O)OC(C)(C)C)C(O)C(O)C(NC(=O)OC(C)(C)C)C(C)C` (stereo not shown) [Example 5, Bis(1,1-dimethylethyl) (2,3-dihydroxy-1,4-(1-methylethyl)-1,4-butanediyl)biscarbamate], the IC50 on HIV protease (setting [2]) was 161 µM.

Consider `CC(C)(C)OC(=O)N1CCCC1C(O)C(O)C1CCCN1C(=O)OC(C)(C)C` (stereo not shown) [Example 7, Bis(1,1-dimethylethyl) 2,2'-(1,2-dihydroxy-1,2-ethanediyl)-1-bis(pyrrolidinecarboxylate)], for which, on HIV protease (setting [2]), the IC50 is 1250 µM.

As to `CC(C)(C)OC(=O)N[C@@H](Cc1ccccc1)[C@H](O)[C@@H](O)[C@H](Cc1ccccc1)NC(=O)OC(C)(C)C` [Example 2A, Bis(1,1-dimethylethyl) (2,3-dihydroxy-1,4-(phenylmethyl)-1,4-butanediyl)biscarbamate (1S,2S,3S,4S)], the IC50 was 10 µg/mL (≈ 20 µM) with HIV(3b) or HIV(Rf) (setting [3]) and 24 µM at HIV protease (setting [2]). Moreover, the IC90 in the experiment with HIV(3b) or HIV(Rf) (setting [1]) is 30 µg/mL (≈ 59.9 µM).

Regarding `O=C(NC(Cc1ccccc1)C(O)C(O)C(Cc1ccccc1)NC(=O)OCc1ccccc1)OCc1ccccc1` (stereo not shown) [Example 9], the IC50 on HIV protease (setting [2]) is 0.914 µM.

Turning to `N[C@@H](Cc1ccccc1)[C@H](O)[C@@H](O)[C@@H](N)Cc1ccccc1` [Example 15, 2,5-Diamino-1,6-diphenyl-3,4-hexanediol dihydrochloride], at HIV protease (setting [2]), the IC50 is 866 µM.

Consider `CC(C)(C)OC(=O)NC(CCc1ccccc1)C(O)C(O)C(CCc1ccccc1)NC(=O)OC(C)(C)C` (stereo not shown) [Example 10, Bis(1,1-dimethylethyl) (2,3-dihydroxy-1,4-(2-phenylmethyl)-1,4-butanediyl)biscarbamate], for which the IC50 at HIV protease (setting [2]) is 1130 µM.

Take `CC(C)(C)OC(=O)NC(Cc1ccc(O)cc1)C(O)C(O)C(Cc1ccc(O)cc1)NC(=O)OC(C)(C)C` (stereo not shown) [Example 13, Bis(1,1-dimethylethyl) (2,3-dihydroxy-1,4-(4-hydroxyphenyl)methyl-1,4-butaneidyl)biscarbamate]: the IC50 was 2.3 µg/mL (≈ 4.32 µM) in the experiment on HIV(3b) or HIV(Rf) (setting [3]) and 6.2 µM at HIV protease (setting [2]). Besides, the IC90 with HIV(3b) or HIV(Rf) (setting [1]) came to 25 µg/mL (≈ 46.9 µM).

As to `N[C@@H](Cc1ccccc1)[C@@H](O)[C@H](O)[C@@H](N)Cc1ccccc1` [Example 16, 2,5-Diamino-1,6-diphenyl-3,4-hexanediol dihydrochloride], on HIV protease (setting [2]), the IC50 was 866 µM.

`CC[C@H](C)[C@H](NC(=O)Cc1ccccn1)C(=O)N[C@@H](Cc1ccccc1)[C@@H](O)[C@H](O)[C@H](Cc1ccccc1)NC(=O)[C@@H](NC(=O)Cc1ccccn1)[C@@H](C)CC` [Example 20, 2,5-(N-2-Pyridylacetyl-L-Ile)diamino-1,6-diphenyl-3,4-hexanediol]: the IC50 in the experiment on HIV(3b) or HIV(Rf) (setting [3]) was less than 1 µg/mL; on HIV protease (setting [2]) it was 0.0131 µM. In the experiment on HIV(3b) or HIV(Rf) (setting [1]), the IC90 was less than 1 µg/mL.

`CC(NC(=O)C(NC(=O)OC(C)(C)C)C(C)O)C(=O)NC(C(=O)NC(C)C(=O)NC(Cc1ccccc1)C(O)C(O)C(Cc1ccccc1)NC(=O)C(C)NC(=O)C(NC(=O)C(C)NC(=O)C(NC(=O)OC(C)(C)C)C(C)O)C(C)O)C(C)O` (stereo not drawn) [Example 18, Bis(Boc-Thr-Ala-Thr-Ala), N,N'((2,3-dihydroxy-1,4-(phenylmethyl)-1,4-butanediyl))biscarbamate]: the IC50 in the experiment on HIV(3b) or HIV(Rf) (Human immunodeficiency virus 1, MT2, read-out: Cell Assay IC50) is 6 µg/mL (≈ 5.04 µM); on HIV protease (read-out: Cell Free Assay), 1.93 µM. The IC90 with HIV(3b) or HIV(Rf) (Human immunodeficiency virus 1, MT2, read-out: Cell Assay IC90) stood at 12 µg/mL (≈ 10.1 µM).

Take `CC(C)(C)OC(=O)NC(Cc1ccc(I)cc1)C(O)C(O)C(Cc1ccc(I)cc1)NC(=O)OC(C)(C)C` (stereo not shown) [Example 12]: at HIV protease (setting [2]), the IC50 is 5.45 µM.

Regarding `CC(C)CC(NC(=O)OC(C)(C)C)C(O)C(O)C(CC(C)C)NC(=O)OC(C)(C)C` (stereo not shown) [Example 6, Bis(1,1-dimethylethyl) (2,3-dihydroxy-1,4-(2-methylpropyl)-1,4-butanediyl)biscarbamate], the IC50 on HIV protease (setting [2]) is 11.1 µM.

In the case of `CSCCC(NC(=O)OC(C)(C)C)C(O)C(O)C(CCSC)NC(=O)OC(C)(C)C` (stereo not shown) [Example 1B], in the experiment with HIV(3b) or HIV(Rf) (Table XVII, HIV in MT-2 cells), the “Cell Assay IC50” value is on record as 5. Further, on HIV protease (setting [2]), the IC50 is 78.9 µM.

For `CC(C)(C)OC(=O)N[C@@H](Cc1ccccc1)[C@@H](O)[C@H](O)[C@H](Cc1ccccc1)NC(=O)OC(C)(C)C` [Example 2B], the IC50 with HIV(3b) or HIV(Rf) (setting [3]) is 1.9 µg/mL (≈ 3.8 µM); at HIV protease (setting [2]), 0.34 µM. For the same compound, the IC90 in the experiment with HIV(3b) or HIV(Rf) (setting [1]) is 3 µg/mL (≈ 5.99 µM).

In the case of `CC(=O)N[C@@H](Cc1ccccc1)[C@@H](O)[C@H](O)[C@H](Cc1ccccc1)NC(C)=O` [Example 14, N,N'-((2,3-dihydroxy-1,4-(phenylmethyl)-1,4-butanediyl))bisacetamide], at HIV protease (setting [2]), the IC50 was 1250 µM.

On to `CC(C)(C)OC(=O)NC(c1ccccc1)C(O)C(O)C(NC(=O)OC(C)(C)C)c1ccccc1` (stereo not shown) [Example 8, Bis (1,1-dimethylethyl) (2,3-dihydroxy-1,4-diphenyl-1,4-butanediyl)biscarbamate], for which the IC50 at HIV protease (setting [2]) was 1250 µM.
